Patent publication US20240336642A1 (The General Hospital Corporation, priority 2021, published 2024)
Structures can show the parent of a compound that is named as a salt.

Target: h12/15-LOX (Homo sapiens (Human), UniProt P16050)
Test: 12/15-LOX enzyme inhibition IC50 assay (Examples 1 and 2)
Assay type: biochemical
Conditions: for Emax: h12/15-LOX, read-out: Max % inhibition
Description: Enzyme was then added to the cuvettes. […] The % inhibition for each test compound concentration were calculated as follows: […]

Chain of h12/15-LOX (P16050 whole entry): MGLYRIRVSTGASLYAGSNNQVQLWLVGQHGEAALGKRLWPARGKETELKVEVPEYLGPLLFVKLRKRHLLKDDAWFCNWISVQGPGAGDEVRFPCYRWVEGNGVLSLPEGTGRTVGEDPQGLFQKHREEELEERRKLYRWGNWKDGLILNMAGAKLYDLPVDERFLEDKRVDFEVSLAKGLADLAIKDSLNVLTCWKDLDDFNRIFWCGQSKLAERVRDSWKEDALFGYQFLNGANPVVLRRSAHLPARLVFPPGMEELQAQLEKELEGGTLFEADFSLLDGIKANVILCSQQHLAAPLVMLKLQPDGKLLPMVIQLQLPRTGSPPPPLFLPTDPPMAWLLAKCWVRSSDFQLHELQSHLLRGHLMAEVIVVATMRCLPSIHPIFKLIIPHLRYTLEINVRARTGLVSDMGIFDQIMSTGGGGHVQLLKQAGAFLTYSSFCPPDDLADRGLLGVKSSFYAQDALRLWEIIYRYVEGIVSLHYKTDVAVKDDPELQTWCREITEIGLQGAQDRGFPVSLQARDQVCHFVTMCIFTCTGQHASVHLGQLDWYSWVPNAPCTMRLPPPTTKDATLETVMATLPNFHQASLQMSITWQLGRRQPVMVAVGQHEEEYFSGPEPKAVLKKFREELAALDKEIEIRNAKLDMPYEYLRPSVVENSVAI

**Q.** With `CN(C)CCOC(=O)Nc1oc(-c2cc(Cl)cc(Cl)c2Cl)nc1C#N` [Compound 59, 2-(Dimethylamino)ethyl (4-cyano-2-(2,3,5-trichlorophenyl)oxazol-5-yl)carbamate hydrochloride] as the molecule, how does the IC50 read?
**A.** The IC50 was greater than 20000 nM.

**Q.** With `CNc1oc(-c2cc(Cl)cc(Cl)c2OC)nc1C#N` [Compound 5, 2-(3,5-Dichloro-2-methoxyphenyl)-5-(methylamino)oxazole-4-carbonitrile] as the molecule, how does the IC50 read?
**A.** Its IC50 is 180 nM.

**Q.** And the Emax?
**A.** The Emax was 92%.

**Q.** `COCCOCCNc1oc(-c2cc(C)cc(Cl)c2Cl)nc1C#N` [Compound 38, 2-(2,3-Dichloro-5-methylphenyl)-5-((2-(2-methoxyethoxy)ethyl)amino)oxazole-4-carbonitrile] was tested. Which IC50 did it give?
**A.** Its IC50 is 6600 nM.

**Q.** What about the Emax of the same molecule?
**A.** The Emax was 100%.

**Q.** With `Cc1c(Cl)cc(Cl)cc1-c1nc(C#N)c(NCCOCCO)o1` [Compound 30] as the molecule, how does the Emax read?
**A.** The Emax was 100%.

**Q.** For `CNc1oc(-c2cc(C#N)cc(Cl)c2Cl)nc1C#N` [Compound 13, 2-(2,3-Dichloro-5-cyanophenyl)-5-(methylamino)oxazole-4-carbonitrile], which IC50 is on record?
**A.** Its IC50 is 1100 nM.

**Q.** And the Emax?
**A.** Its Emax is 100%.

**Q.** With `COc1cc(OCCOCCNc2oc(-c3cc(Cl)cc(Cl)c3Cl)nc2C#N)ccn1` [Compound 101, 5-((2-(2-((2-Methoxypyridin-4-yl)oxy)ethoxy)ethyl)amino)-2-(2,3,5-trichlorophenyl)oxazole-4-carbonitrile] as the molecule, how does the IC50 read?
**A.** Its IC50 is 72 nM.

**Q.** And the Emax?
**A.** Its Emax is 62%.

**Q.** With `COc1cnccc1OCCOCCNc1oc(-c2cc(Cl)cc(Cl)c2Cl)nc1C#N` [Compound 99, 5-((2-(2-((3-Methoxypyridin-4-yl)oxy)ethoxy)ethyl)amino)-2-(2,3,5-trichlorophenyl)oxazole-4-carbonitrile] as the molecule, how does the IC50 read?
**A.** Its IC50 is 1700 nM.

**Q.** What about the Emax of the same molecule?
**A.** Its Emax is 66%.

**Q.** How did the IC50 turn out when `[2H]C([2H])([2H])N(C(=O)OCCCN(C)C)c1oc(-c2cc(Cl)cc(Cl)c2Cl)nc1C#N` [Compound 54, hydrochloride] was run?
**A.** The IC50 was greater than 20000 nM.

**Q.** With `N#Cc1nc(-c2cc(Cl)cc(Cl)c2F)oc1NCCCCCO` [Compound 25] as the molecule, how does the Emax read?
**A.** Its Emax is 38%.

**Q.** How did the IC50 turn out when `N#Cc1nc(-c2cc(Cl)cc(Cl)c2Cl)oc1NCC#CCOCc1ccc(C(=O)O)cc1` [Compound 89, 4-(((4-((4-Cyano-2-(2,3,5-trichlorophenyl)oxazol-5-yl)amino)but-2-yn-1-yl)oxy)methyl)benzoic acid] was run?
**A.** The IC50 was 1300 nM.

**Q.** What about the Emax of the same molecule?
**A.** Its Emax is 100%.

**Q.** With `CN(c1oc(-c2cc(Cl)cc(Cl)c2Cl)nc1C#N)P(=O)(O)O` [Compound 68, (4-cyano-2-(2,3,5-trichlorophenyl)oxazol-5-yl)(methyl)phosphoramidic acid] as the molecule, how does the IC50 read?
**A.** The IC50 was greater than 20000 nM.

**Q.** With `CNc1oc(-c2cc(Cl)cc(Cl)c2F)nc1C#N` [Compound 3, 2-(3,5-Dichloro-2-fluorophenyl)-5-(methylamino)oxazole-4-carbonitrile] as the molecule, how does the IC50 read?
**A.** Its IC50 is 330 nM.

**Q.** And the Emax?
**A.** The Emax was 88%.

**Q.** With `CNc1oc(-c2cc(Cl)cc(C)c2Cl)nc1C#N` [Compound 6, 2-(2,5-Dichloro-3-methylphenyl)-5-(methylamino)oxazole-4-carbonitrile] as the molecule, how does the IC50 read?
**A.** Its IC50 is 180 nM.

**Q.** And the Emax?
**A.** The Emax was 99%.

**Q.** Which results are given for `N#Cc1nc(-c2cc(Cl)cc(Cl)c2Cl)oc1NCCOCCN1CCC(F)C1` (stereo not shown) [Compound 78, 5-((2-(2-(3-Fluoropyrrolidin-1-yl)ethoxy)ethyl)amino)-2-(2,3,5-trichlorophenyl)oxazole-4-carbonitrile]?
**A.** IC50: > 20000 nM; Emax: 49%

**Q.** What does the source list for `CN(CCOCCNc1oc(-c2cc(Cl)cc(Cl)c2Cl)nc1C#N)CC(F)(F)F` [Compound 73, 5-((2-(2-(Methyl(2,2,2-trifluoroethyl)amino)ethoxy)ethyl)amino)-2-(2,3,5-trichlorophenyl)oxazole-4-carbonitrile]?
**A.** IC50: 470 nM; Emax: 70%

**Q.** For `CNc1oc(-c2cc(Cl)cc(C(F)(F)F)c2Cl)nc1C#N` [Compound 8, 2-(2,5-Dichloro-3-(trifluoromethyl)phenyl)-5-(methylamino)oxazole-4-carbonitrile], which IC50 is on record?
**A.** Its IC50 is 81 nM.

**Q.** What about the Emax of the same molecule?
**A.** The Emax was 94%.

**Q.** What does the source list for `N#Cc1nc(-c2cc(Cl)cc(Cl)c2Cl)oc1NCCOCCN1CCC(F)(F)C1` [Compound 92, 5-((2-(2-(3,3-Difluoropyrrolidin-1-yl)ethoxy)ethyl)amino)-2-(2,3,5-trichlorophenyl)oxazole-4-carbonitrile]?
**A.** IC50: 8800 nM; Emax: 86%

**Q.** With `N#Cc1nc(-c2cc(Cl)cc(Cl)c2Cl)oc1NCCOCCN1CCC(F)CC1` [Compound 80, 5-((2-(2-(4-Fluoropiperidin-1-yl)ethoxy)ethyl)amino)-2-(2,3,5-trichlorophenyl)oxazole-4-carbonitrile] as the molecule, how does the IC50 read?
**A.** Its IC50 is greater than 20000 nM.

**Q.** With `COCCOCCNc1oc(-c2cc(Cl)cc(Cl)c2F)nc1C#N` [Compound 35, 2-(3,5-Dichloro-2-fluorophenyl)-5-((2-(2-methoxyethoxy)ethyl)amino)oxazole-4-carbonitrile] as the molecule, how does the IC50 read?
**A.** Its IC50 is 3000 nM.

**Q.** And the Emax?
**A.** The Emax was 100%.

**Q.** `CNc1oc(-c2cc(Cl)cc(Cl)c2C)nc1C#N` [Compound 2, 2-(3,5-Dichloro-2-methylphenyl)-5-(methylamino)oxazole-4-carbonitrile] was tested. Which IC50 did it give?
**A.** The IC50 was 63 nM.

**Q.** And the Emax?
**A.** Its Emax is 85%.

**Q.** What does the source list for `N#Cc1nc(-c2cc(Cl)cc(Cl)c2Cl)oc1NCCOCCOc1cccnn1` [Compound 79, 5-((2-(2-(Pyridazin-3-yloxy)ethoxy)ethyl)amino)-2-(2,3,5-trichlorophenyl)oxazole-4-carbonitrile]?
**A.** IC50: > 20000 nM; Emax: 17%

**Q.** What does the source list for `N#Cc1nc(-c2cc(Cl)cc(C(F)(F)F)c2Cl)oc1NCCCCO` [Compound 20, 2-(2,5-Dichloro-3-(trifluoromethyl)phenyl)-5-((4-hydroxybutyl)amino)oxazole-4-carbonitrile]?
**A.** IC50: 1500 nM; Emax: 97%

**Q.** Which results are given for `COCCNc1oc(-c2cc(Cl)cc(Cl)c2OC(F)F)nc1C#N` [Compound 40, 2-(3,5-Dichloro-2-(difluoromethoxy)phenyl)-5-((2-methoxyethyl)amino)oxazole-4-carbonitrile]?
**A.** IC50: 290 nM; Emax: 94%

**Q.** `CNc1oc(-c2cc(F)cc(Cl)c2Cl)nc1C#N` [Compound 11, 2-(2,3-Dichloro-5-fluorophenyl)-5-(methylamino)oxazole-4-carbonitrile] was tested. Which IC50 did it give?
**A.** The IC50 was 870 nM.

**Q.** And the Emax?
**A.** Its Emax is 93%.

**Q.** For `COCCOCCNc1oc(-c2cc(Cl)cc(Cl)c2OC(F)F)nc1C#N` [Compound 33, 2-(3,5-Dichloro-2-(difluoromethoxy)phenyl)-5-((2-(2-methoxyethoxy)ethyl)amino)oxazole-4-carbonitrile], which IC50 is on record?
**A.** Its IC50 is 650 nM.

**Q.** What about the Emax of the same molecule?
**A.** Its Emax is 100%.

**Q.** What does the source list for `CNc1oc(-c2cc(C)cc(Cl)c2Cl)nc1C#N` [Compound 10, 2-(2,3-Dichloro-5-methylphenyl)-5-(methylamino)oxazole-4-carbonitrile]?
**A.** IC50: 380 nM; Emax: 80%

**Q.** With `N#Cc1nc(-c2cc(Cl)cc(Cl)c2Cl)oc1NCCOCCOCCF` [Compound 70, 5-((2-(2-(2-Fluoroethoxy)ethoxy)ethyl)amino)-2-(2,3,5-trichlorophenyl)oxazole-4-carbonitrile] as the molecule, how does the IC50 read?
**A.** Its IC50 is 1100 nM.

**Q.** What about the Emax of the same molecule?
**A.** The Emax was 110%.

**Q.** `CN(C)CCCC(=O)Nc1oc(-c2cc(Cl)cc(Cl)c2Cl)nc1C#N` [Compound 65, N-(4-Cyano-2-(2,3,5-trichlorophenyl)oxazol-5-yl)-4-(dimethylamino)butanamide hydrochloride] was tested. Which IC50 did it give?
**A.** Its IC50 is greater than 20000 nM.

**Q.** For `COCCNc1oc(-c2cc(Cl)cc(C(F)(F)F)c2Cl)nc1C#N` [Compound 42, 2-(2,5-Dichloro-3-(trifluoromethyl)phenyl)-5-((2-methoxyethyl)amino)oxazole-4-carbonitrile], which IC50 is on record?
**A.** The IC50 was 350 nM.

**Q.** What about the Emax of the same molecule?
**A.** Its Emax is 75%.

**Q.** Which IC50 does the source give for `COCCOCCOC(=O)Nc1oc(-c2cc(Cl)cc(Cl)c2Cl)nc1C#N` [Compound 60, 2-(2-Methoxyethoxy)ethyl (4-cyano-2-(2,3,5-trichlorophenyl)oxazol-5-yl)carbamate] here?
**A.** The IC50 was greater than 20000 nM.

**Q.** With `COCCOCCOC(=O)N(C)c1oc(-c2cc(Cl)cc(Cl)c2Cl)nc1C#N` [Compound 56, 2-(2-Methoxyethoxy)ethyl (4-cyano-2-(2,3,5-trichlorophenyl)oxazol-5-yl)(methyl)carbamate] as the molecule, how does the IC50 read?
**A.** Its IC50 is greater than 20000 nM.

**Q.** Which IC50 does the source give for `N#Cc1nc(-c2cc(Cl)cc(Cl)c2Cl)oc1NCCOCCN1CCC(F)(F)CC1` [Compound 98, 5-((2-(2-(4,4-Difluoropiperidin-1-yl)ethoxy)ethyl)amino)-2-(2,3,5-trichlorophenyl)oxazole-4-carbonitrile] here?
**A.** The IC50 was 3100 nM.

**Q.** What about the Emax of the same molecule?
**A.** Its Emax is 79%.

**Q.** How did the IC50 turn out when `CN(C)CCCNC(=O)Nc1oc(-c2cc(Cl)cc(Cl)c2Cl)nc1C#N` [Compound 67, 1-(4-cyano-2-(2,3,5-trichlorophenyl)oxazol-5-yl)-3-(3-(dimethylamino)propyl) urea hydrochloride] was run?
**A.** The IC50 was greater than 20000 nM.

**Q.** Which results are given for `COCCOCCNc1oc(-c2cc(Cl)cc(C(F)(F)F)c2Cl)nc1C#N` [Compound 37, 2-(2,5-Dichloro-3-(trifluoromethyl)phenyl)-5-((2-(2-methoxyethoxy)ethyl)amino)oxazole-4-carbonitrile]?
**A.** IC50: 1800 nM; Emax: 96%

**Q.** `COCCNc1oc(-c2cc(Cl)cc(Cl)c2C)nc1C#N` [Compound 41, 2-(3,5-Dichloro-2-methylphenyl)-5-((2-methoxyethyl)amino)oxazole-4-carbonitrile] was tested. Which IC50 did it give?
**A.** The IC50 was 170 nM.

**Q.** What about the Emax of the same molecule?
**A.** Its Emax is 89%.

**Q.** With `N#Cc1nc(-c2cc(Cl)cc(Cl)c2Cl)oc1NCC#CCOCc1ccc(CCN2CCOCC2)cc1` [Compound 86] as the molecule, how does the Emax read?
**A.** Its Emax is 100%.

**Q.** Which results are given for `CNc1oc(-c2c(Cl)ccc(Cl)c2Cl)nc1C#N`?
**A.** IC50: > 20000 nM; Emax: 32%

**Q.** `N#Cc1nc(-c2cc(Cl)cc(Cl)c2Cl)oc1NCCOCCNCCF` [Compound 93] was tested. Which Emax did it give?
**A.** The Emax was 98%.

**Q.** Which IC50 does the source give for `N#Cc1nc(-c2cc(Cl)cc(Cl)c2Cl)oc1NCCOCCNCC(F)(F)F` [Compound 94, 2-(2,3,5-Trichlorophenyl)-5-((2-(2-((2,2,2-trifluoroethyl)amino)ethoxy)ethyl)amino)oxazole-4-carbonitrile] here?
**A.** Its IC50 is 300 nM.

**Q.** What about the Emax of the same molecule?
**A.** The Emax was 77%.

**Q.** What does the source list for `COCCOCCNc1oc(-c2cc(Cl)cc(C)c2Cl)nc1C#N` [Compound 36, 2-(2,5-Dichloro-3-methylphenyl)-5-((2-(2-methoxyethoxy)ethyl)amino)oxazole-4-carbonitrile]?
**A.** IC50: 1100 nM; Emax: 100%

**Q.** With `COCCOCCNc1oc(-c2cc(Cl)cc(Cl)c2C)nc1C#N` [Compound 34] as the molecule, how does the Emax read?
**A.** The Emax was 100%.

**Q.** How did the IC50 turn out when `CNc1oc(-c2ccc(Cl)c(Cl)c2Cl)nc1C#N` was run?
**A.** Its IC50 is greater than 20000 nM.

**Q.** And the Emax?
**A.** Its Emax is 49%.

**Q.** Which IC50 does the source give for `N#Cc1nc(-c2cc(Cl)cc(Cl)c2OC(F)F)oc1NCCCCO` [Compound 18, 2-(3,5-Dichloro-2-(difluoromethoxy)phenyl)-5-((4-hydroxybutyl)amino)oxazole-4-carbonitrile] here?
**A.** The IC50 was 2000 nM.

**Q.** And the Emax?
**A.** Its Emax is 90%.
